Earlier results in article PMC11002876, “KcsA-Kv1.x chimeras with complete ligand-binding sites provide improved predictivity for screening selective Kv1.x blockers” (The Journal of Biological Chemistry, 2024).

Columns and labels:
Settings in all cases: cited from earlier work
KCa3.1 = test system: KCa3.1
From the text: (§1) Peptide toxins of venomous animal origin as lead molecules for optimization may offer an advantage over small molecules in terms of potentially greater affinity and specificity. These miniproteins are usually up to 50 amino acids in length and can adopt distinct conformation with secondary structural elements stabilized by several disulfide bonds ([9], [10], [11]). Due to their considerable surface area, miniproteins can form stable complexes with target proteins through extensive interaction surfaces ([12], [13]). The miniprotein Kv1.3 blocker drug candidate, Dalazatide—a synthetic derivative ...

Kv1.2 = test system: Kv1.2
From the text: as §1

mouse Kv1.1 = test system: mouse Kv1.1
From the text: as §1

CC[C@H](C)[C@H](NC(=O)[C@H](C)NC(=O)[C@H](C)NC(=O)[C@H](C)N)C(=O)N[C@@H](CO)C(=O)N[C@H]1CSSC[C@@H]2NC(=O)[C@H](CCCCN)NC(=O)CNC(=O)[C@H](CC(N)=O)NC(=O)[C@H](CCCCN)NC(=O)[C@@H]3CSSC[C@@H](C(N)=O)NC(=O)[C@H](Cc4ccc(O)cc4)NC(=O)[C@H](Cc4ccc(O)cc4)NC(=O)[C@@H]4CSSC[C@H](NC(=O)[C@H](CCCCN)NC(=O)[C@@H]5CCCN5C(=O)[C@@H]5CCCN5C(=O)[C@H](CSSC[C@H](NC(=O)[C@H](CCCCN)NC(=O)[C@H](CCCNC(=N)N)NC(=O)[C@H](CC(N)=O)NC(=O)[C@H](CCSC)NC2=O)C(=O)N[C@@H](CCCCN)C(=O)N4)NC(=O)[C@H](CCC(=O)O)NC(=O)[C@@H]2CCCN2C(=O)[C@H](CO)NC(=O)CNC(=O)[C@H](C(C)C)NC1=O)C(=O)N[C@@H](CCCNC(=N)N)C(=O)N[C@@H](C)C(=O)N[C@@H](CCC(N)=O)C(=O)NCC(=O)N3 [Vm24, Vm24 toxin]
limited selectivity: selectivity for Kv1.3 over KCa3.1 (KCa3.1) | selectivity for Kv1.3 over Kv1.2 (Kv1.2) | selectivity for Kv1.3 over mouse Kv1.1 (mouse Kv1.1)
